According to patent US4652560A, “A-deoxy-a-aza derivatives of clavulanic acid, a process for their preparation and their use” (Beecham Group p.l.c., priority 1979, dated 1987):

Test system: E coli JT39
Assay: Antibacterial Activity, standard MIC test
Assay type: cell-based
Conditions: Escherichia coli, compound alone
Description: Using conventional methods the following results were obtained in a standard MIC test: […]

O=C(O)CCCCCCCCCCNC/C=C1\O[C@@H]2CC(=O)N2[C@H]1C(=O)O [11 (b), 9-N-(10'-Carboxydecyl)aminodeoxyclavulanic acid]
MIC: > 500 µg/mL
